PMC3683333, “^11C-LY2428703, a positron emission tomographic radioligand for the metabotropic glutamate receptor 1, is unsuitable for imaging in monkey and human brains” (EJNMMI Research, 2013)

Experiments:
[1] = system: ABCB1 (P-gp) and ABCG2 (BCRP); assay: Brain PET after blockade of efflux transporters, monkey; assay type: in vivo, rhesus monkeys (Macaca mulatta)
Procedure: (§1) Four male rhesus monkeys (Macaca mulatta, 11.7 ± 2.9 kg) were imaged in 13 PET scans. Seven scans were performed at baseline, three scans were performed after receptor blocking to calculate nondisplaceable uptake (VND), and three scans were performed after blockade of the efflux transporters at the blood–brain barrier. Receptors were blocked by mixing ^11C-LY2428703 with an mGluR1 antagonist - either nonradioactive LY2428703 (2.0 mg/kg) or LY2332084 (0.5 mg/kg) - in the same syringe. Efflux transporters were blocked in two scans by injecting DCPQ, which selectively blocks the efflux transporter ABCB1 (P-gp), and in one scan by injecting elacridar, which blocks both ABCB1 (P-gp) and ABCG2 (BCRP).
(§2) PET images were acquired using either the high-resolution research tomograph (HRRT) or the FOCUS 220 scanner (Siemens/CPS, Knoxville, TN, USA) for 120 min in 33 frames, with frame durations ranging from 30 s to 5 min, and correcting for attenuation and scatter. About 2 h before the PET scan, anesthesia was initiated with ketamine (10 mg/kg IM) and then maintained with 1% to 3% isoflurane. Electrocardiograph, body temperature, heart rate, and respiration rate were measured throughout the experiment. At baseline, the injected activity was 210 ± 51 MBq (specific activity at time of injection 43.2 ± 25.6 GBq/μmol, mass dose 6.9 ± 4.7 nmol or 0.62 ± 0.35 nmol/kg). Tissue time-activity curves were obtained from semi-automatic regions of interest encompassing the whole cerebellum and the rest of the brain. Brain uptake was expressed as standardized uptake value (SUV). Arterial input function was obtained for eight scans: four at baseline, two after blocking with nonradioactive LY2428703, one after blocking with DCPQ, and one after blocking with elacridar. Blood samples (0.5 mL each) were drawn through a port connected to the femoral artery at 15-s intervals until 2 min, followed by 1-mL samples at 3, 5, 10, 30, 60, 90, and 120 min. The plasma time-activity curve was corrected for the fraction of unchanged radioligand following the procedure detailed above.
(§3) Volumes of distribution (VT) were obtained by nonlinear compartmental analysis. Goodness-of-fit by nonlinear least squares analysis was evaluated using the Akaike Information Criterion (AIC) and Model Selection Criterion (MSC). The most appropriate model is that with the smallest AIC and the largest MSC score. Goodness-of-fit by the compartment models was compared with F statistics. A value of P < 0.05 was considered significant for F statistics. The identifiability of kinetic variables was calculated as standard error obtained from the diagonal of the covariance matrix and expressed as a percentage of the rate constant.

mGluR1 [2] = assay: Brain PET at baseline and after mGluR1 blockade, monkey; assay type: in vivo, rhesus monkeys (Macaca mulatta)
Procedure: as §1, §2, §3

[3] = Pharmacological effects of injection, human; assay type: in vivo; details: three human subjects
Excerpt: (§4) Three healthy females participated in the study (29 ± 2-year old, 69 ± 13 kg). All were free from current medical and psychiatric illnesses, as assessed by medical history, physical examination, electrocardiogram, urinalysis including drug screening, and blood tests (complete blood count, serum chemistries, thyroid function test, and antibody screening for syphilis, HIV, and hepatitis B). The National Institutes of Health Central Nervous System Institutional Review Board approved the protocols and the consent forms. Written informed consent was obtained from all subjects.

[4] = Brain exposure comparison of five radioligands; assay type: in vivo, human; details: in vivo
Procedure: Another complicating factor is low delivery to brain (i.e., low drug exposure), which may have cause low brain uptake. We compared five different radioligands from previous studies with regard to exposure to brain (Table 3) and measured the area under the curve of plasma concentration vs. time from 0 to 20 min. […] The effective exposure was thus named because only the free concentration of drug can cross the blood–brain barrier. ^11C-LY2428703 had the highest exposure value among the tracers tested. This high exposure was due to the slow wash-out of the tracer from the vascular compartment and to negligible metabolism in plasma, that is, parent radioligand represented 99% of plasma radioactivity even at the end of the 2-h scanning session.

mGluR1 [5] = biological target: mGluR1 (Homo sapiens, UniProt Q13255); assay: Brain PET at baseline, human; assay type: in vivo; set-up: from tissue; host or cells: brain of living healthy human volunteers (in vivo PET); details: for VT: mean ± SD
Excerpt: as §4
PET images were acquired using the GE Advance scanner (GE Healthcare, Milwaukee, WI, USA) for 120 min. An 8-min ^68Ge transmission scan was obtained before the injection of the radiotracer for attenuation correction. The mean injected activity was 328 ± 12 MBq. The specific activity at the time of injection was 87.2 ± 34.7 GBq/μmol, which corresponded to 5.5 ± 2.3 nmol (0.082 ± 0.037 nmol/kg) of carrier. Blood samples (1 mL each) were drawn from the radial artery at 15-s intervals until 150 s, followed by 3-mL samples at 3, 4, 6, 8, 10, 15, 20, 30, 40, and 50 min, and 4.5 mL at 60, 75, 90, and 120 min. The unchanged parent fraction in plasma and fP of ^11C-LY2428703 were determined as described above.
To identify brain regions, magnetic resonance (MR) images were obtained using a 3-T GE Signa device (GE Healthcare, Milwaukee, WI, USA). T1-weighted structural images were acquired with a voxel size of 0.86 mm × 0.86 mm × 1.2 mm. The image acquisition sequences were the time of repetition (7.3 ms), echo time length (2.8 ms), and flip angle (6°).
The average PET image created from all frames was first coregistered to the individual MR image. Then, both MR and all PET images were spatially normalized to a standard anatomic orientation (Montreal Neurological Institute (MNI) space) based on transformation parameters from the MR images. A volume-of-interest template as implemented in PMOD (PMOD Technologies Ltd, Zurich, Switzerland) was used to obtain brain time-activity curves.
as §3

[6] = Pharmacological effects of injection, monkey; assay type: in vivo, rhesus monkeys; details: after injection
Procedure: as §2

mGluR1 (Homo sapiens, UniProt Q13255), sequence (Q13255 19-1194): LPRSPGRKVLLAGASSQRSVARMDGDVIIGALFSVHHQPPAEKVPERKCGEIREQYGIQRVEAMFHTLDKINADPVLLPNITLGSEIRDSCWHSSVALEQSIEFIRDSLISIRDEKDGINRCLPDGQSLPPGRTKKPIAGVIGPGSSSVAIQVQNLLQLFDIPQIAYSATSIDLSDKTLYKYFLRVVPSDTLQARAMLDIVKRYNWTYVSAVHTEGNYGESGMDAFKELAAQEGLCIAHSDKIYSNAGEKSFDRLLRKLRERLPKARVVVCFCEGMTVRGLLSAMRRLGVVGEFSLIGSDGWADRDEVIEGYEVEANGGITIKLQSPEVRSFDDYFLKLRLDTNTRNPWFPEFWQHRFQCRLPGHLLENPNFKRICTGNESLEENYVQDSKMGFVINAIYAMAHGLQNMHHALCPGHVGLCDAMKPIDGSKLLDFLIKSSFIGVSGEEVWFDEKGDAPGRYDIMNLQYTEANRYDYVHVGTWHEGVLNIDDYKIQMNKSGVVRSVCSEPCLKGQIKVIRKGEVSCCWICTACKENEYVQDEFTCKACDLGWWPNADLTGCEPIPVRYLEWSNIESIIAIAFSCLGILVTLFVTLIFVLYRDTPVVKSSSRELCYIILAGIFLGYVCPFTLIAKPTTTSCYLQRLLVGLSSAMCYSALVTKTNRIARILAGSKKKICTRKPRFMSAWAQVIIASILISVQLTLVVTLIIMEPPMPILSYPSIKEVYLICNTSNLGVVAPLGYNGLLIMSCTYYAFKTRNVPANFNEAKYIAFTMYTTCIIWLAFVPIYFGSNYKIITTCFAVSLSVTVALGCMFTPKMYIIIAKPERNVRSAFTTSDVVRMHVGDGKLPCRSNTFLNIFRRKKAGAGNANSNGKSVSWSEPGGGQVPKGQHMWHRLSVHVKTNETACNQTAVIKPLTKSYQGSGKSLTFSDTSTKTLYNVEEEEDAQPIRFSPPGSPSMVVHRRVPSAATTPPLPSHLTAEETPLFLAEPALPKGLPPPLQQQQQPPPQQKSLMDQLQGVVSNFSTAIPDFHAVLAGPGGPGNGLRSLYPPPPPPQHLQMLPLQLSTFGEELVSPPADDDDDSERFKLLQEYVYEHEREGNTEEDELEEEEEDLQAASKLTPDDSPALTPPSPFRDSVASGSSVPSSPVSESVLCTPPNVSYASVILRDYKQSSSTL

Cc1c(-c2ccc(O[11CH3])cc2)nsc1NC(=O)[C@@H]1C[C@H]1C [^11C-LY2428703]
VT in cerebellum ([1]; DCPQ experiment: baseline): 4.4 mL/cm^3
VT in cerebellum ([1]; after DCPQ blockade (P-gp)): 4.2 mL/cm^3
VT in cerebellum ([1]; after elacridar blockade (P-gp and BCRP)): 0.8 mL/cm^3
substrate for P-gp or BCRP ([1]; based on pharmacological blockade): not a substrate
VT in cerebellum ([1]; elacridar experiment: baseline): 2.0 mL/cm^3
peak uptake in cerebellum (mGluR1 [2]; after mGluR1 blockade): 4.9 ± 0.8 SUV
peak uptake in forebrain (mGluR1 [2]; after mGluR1 blockade): 3.6 ± 1.9 SUV
peak uptake in cerebellum (mGluR1 [2]; baseline): 3.1 ± 1.4 SUV
peak uptake in cerebellum higher than in forebrain (mGluR1 [2]; baseline): about 50%
peak uptake in forebrain (mGluR1 [2]; baseline): 2.2 ± 0.8 SUV
time at which cerebellar uptake decreased to 50% of peak (mGluR1 [2]; baseline): about 20 min
time of peak uptake in cerebellum (mGluR1 [2]; baseline): approximately 2 min
time of peak uptake in forebrain (mGluR1 [2]; baseline): approximately 2 min
mean VT (mGluR1 [2]; baseline scans, two-tissue compartment model): 3.5 ± 1.0 mL/cm^3
VND (mGluR1 [2]; calculated from mGluR1 blocking studies): 4.4 ± 2.9 mL/cm^3
pharmacological effects (vital signs, electrocardiogram, laboratory testing, verbal reports) [3]: no pharmacological effects
Brain peak SUV [4]: ~0.5 SUV
Effective exposure (E × fp) [4]: 0.19
VT values (mGluR1 [5]; 2TCM, all brain regions): < 0.1 mL/cm^3
time of brain peak uptake (mGluR1 [5]; after injection): 1.3 ± 0 min
time at which brain activity decreased to 50% of the peak (mGluR1 [5]; average): 20 min
VT (mGluR1 [5]; caudate, two-tissue compartment model): 0.086 ± 0.024 (22.6%) mL · cm^−3
VT (mGluR1 [5]; cerebellum, two-tissue compartment model): 0.090 ± 0.010 (2.8%) mL · cm^−3
VT (mGluR1 [5]; frontal cortex, two-tissue compartment model): 0.092 ± 0.016 (14.2%) mL · cm^−3
VT (mGluR1 [5]; parietal cortex, two-tissue compartment model): 0.087 ± 0.011 (4.9%) mL · cm^−3
VT (mGluR1 [5]; temporal cortex, two-tissue compartment model): 0.102 ± 0.010 (4.4%) mL · cm^−3
mean VT (mGluR1 [5]; two-tissue compartment model): 0.093 ± 0.012 mL/cm^3
brain peak uptake (mGluR1 [5]; without vascular correction): 1.14 ± 0.18 SUV
changes in pulse/heart rate, respiratory rate, electrocardiogram [6]: no significant changes
